# Measured values as given in the NIST ThermoML archive (doi:10.1016/j.tca.2012.07.034).
# Numbers after ± are expanded uncertainties.
# Settings: Liquid, DSC
smiles,measurement,setting,value
CCCCCCCC/C=C\CCCCCCCC(=O)O [(Z)-9-octadecenoic acid],vapor or sublimation pressure,496.7 K,1.333 ± 0.12 kPa
same,vapor or sublimation pressure,513.1 K,2.666 ± 0.13 kPa
same,vapor or sublimation pressure,524.7 K,4 ± 0.16 kPa
same,vapor or sublimation pressure,532.1 K,5.333 ± 0.19 kPa
same,vapor or sublimation pressure,538.8 K,6.666 ± 0.22 kPa
same,vapor or sublimation pressure,543.8 K,7.999 ± 0.28 kPa
same,vapor or sublimation pressure,547.4 K,9.333 ± 0.32 kPa
CCCCCCCCCCCCCC(=O)O [tetradecanoic acid],vapor or sublimation pressure,464.6 K,1.333 ± 0.12 kPa
same,vapor or sublimation pressure,480.8 K,2.666 ± 0.14 kPa
same,vapor or sublimation pressure,489.5 K,4 ± 0.17 kPa
same,vapor or sublimation pressure,497.2 K,5.333 ± 0.19 kPa
same,vapor or sublimation pressure,503.1 K,6.666 ± 0.23 kPa
same,vapor or sublimation pressure,508.2 K,7.999 ± 0.26 kPa
same,vapor or sublimation pressure,512.6 K,9.333 ± 0.27 kPa
CCCCCCCCCCCCCCCC(=O)O [hexadecanoic acid],vapor or sublimation pressure,483.3 K,1.333 ± 0.12 kPa
same,vapor or sublimation pressure,498.6 K,2.666 ± 0.14 kPa
same,vapor or sublimation pressure,509 K,4 ± 0.16 kPa
same,vapor or sublimation pressure,517.3 K,5.333 ± 0.19 kPa
same,vapor or sublimation pressure,523.4 K,6.666 ± 0.23 kPa
same,vapor or sublimation pressure,527.9 K,7.999 ± 0.25 kPa
same,vapor or sublimation pressure,533.4 K,9.333 ± 0.23 kPa
CCCCCCCCCCCCCCCCCC(=O)O [octadecanoic acid],vapor or sublimation pressure,501.3 K,1.333 ± 0.12 kPa
same,vapor or sublimation pressure,519.1 K,2.666 ± 0.13 kPa
same,vapor or sublimation pressure,528.9 K,4 ± 0.17 kPa
same,vapor or sublimation pressure,535.9 K,5.333 ± 0.18 kPa
same,vapor or sublimation pressure,543.7 K,6.666 ± 0.2 kPa
same,vapor or sublimation pressure,548.7 K,7.999 ± 0.26 kPa
same,vapor or sublimation pressure,553.2 K,9.333 ± 0.27 kPa
CCCCCCCCCCCC(=O)O [dodecanoic acid],vapor or sublimation pressure,444.6 K,1.333 ± 0.13 kPa
same,vapor or sublimation pressure,458.9 K,2.666 ± 0.14 kPa
same,vapor or sublimation pressure,468.5 K,4 ± 0.17 kPa
same,vapor or sublimation pressure,475 K,5.333 ± 0.22 kPa
same,vapor or sublimation pressure,479.6 K,6.666 ± 0.25 kPa
same,vapor or sublimation pressure,484.8 K,7.999 ± 0.23 kPa
same,vapor or sublimation pressure,490.5 K,9.333 ± 0.23 kPa
